For 20 compounds, EC50 and IC50 results are on record in US20120225062A1 (priority 2011, published 2012).

One may read the pEC50 as the EC50 on a negative log10 scale, so that one unit is a factor of ten. Higher therefore signals a low EC50. The pIC50 is the IC50 on a negative log10 scale, so that one unit is a factor of ten.

Test [1] relates to KMS11 (human myeloma cell line). In words: Cell Proliferation Assay (CellTiter-Glo, 3 days). Format: cell-based. As to conditions: KMS-11, 72 h, KMS11-luc cells. The method, then: KMS11 (human myeloma cell line), were cultured in IMDM supplemented with 10% FBS, sodium pyruvate and antibiotics. Cells were plated in the same medium at a density of 2000 cells per well into 96 well tissue culture plates, with outside wells vacant, on the day of assay.
Test compounds supplied in DMSO were diluted into DMSO at 500 times the desired final concentrations before dilution into culture media to 2 times final concentrations. Equal volumes of 2× compounds were added to the cells in 96 well plates and incubated at 37° C. for 3 days.
After 3 days plates were equilibrated to room temperature and equal volume of CellTiter-Glow Reagent (Promega) was added to the culture wells. The plates were agitated briefly and luminescent signal was measured with luminometer.
Using the procedures of Cell Proliferation Assay, the EC50 concentrations of compounds of the examples were determined in KMS11 cells as shown in Table 4.
A general note: Cellular ATP, detected with luciferase, serves as a proxy for viable cell number.

Another test deals with Pim 2 (Homo sapiens, UniProt Q9P1W9). In words: Pim 2 AlphaScreen assay (high ATP). In general terms: Bead proximity is the source of the signal in Alpha formats.
Another test addresses Pim 3 (Homo sapiens, UniProt Q86V86). In words: Pim 3 AlphaScreen assay (high ATP).
Another test addresses Pim 1 (Homo sapiens, UniProt P11309). In words: Pim 1 AlphaScreen assay (high ATP).

pEC50, pIC50: −log10 of the molar value.

Chain of Pim 1 (P11309 whole entry): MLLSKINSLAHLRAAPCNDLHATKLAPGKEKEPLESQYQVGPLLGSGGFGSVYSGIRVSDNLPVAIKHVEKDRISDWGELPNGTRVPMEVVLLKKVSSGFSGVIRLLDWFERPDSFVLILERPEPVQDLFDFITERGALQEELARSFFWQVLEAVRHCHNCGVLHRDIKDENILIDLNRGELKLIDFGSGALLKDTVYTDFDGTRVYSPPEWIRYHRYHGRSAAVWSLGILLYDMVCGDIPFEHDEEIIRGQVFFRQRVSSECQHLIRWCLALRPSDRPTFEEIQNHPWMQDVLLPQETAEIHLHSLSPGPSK
Chain of Pim 2 (Q9P1W9 whole entry): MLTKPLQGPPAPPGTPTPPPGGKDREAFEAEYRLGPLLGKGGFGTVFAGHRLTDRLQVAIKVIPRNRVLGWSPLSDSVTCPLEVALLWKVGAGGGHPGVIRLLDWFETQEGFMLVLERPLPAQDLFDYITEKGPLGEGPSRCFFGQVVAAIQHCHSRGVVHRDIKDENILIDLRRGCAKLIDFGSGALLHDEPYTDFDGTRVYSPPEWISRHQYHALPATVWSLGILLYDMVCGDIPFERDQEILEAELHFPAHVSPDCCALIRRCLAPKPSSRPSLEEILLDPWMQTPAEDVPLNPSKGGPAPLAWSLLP
Procedure for Pim 1: (§1) The activity of Pim 1, Pim 2, & Pim 3 is measured using a homogeneous bead based system quantifying the amount of phosphorylated peptide substrate resulting from kinase-catalyzed phosphoryl transfer to a peptide substrate. Compounds to be tested are dissolved in 100% DMSO and directly distributed to a white 384-well plate at 0.25 μl per well. […] This is followed by the addition of 5 μl/well of Pim 1, Pim 2 or Pim 3 kinase in assay buffer (concentrations described below). Final assay concentrations (described below) are in 2.5% DMSO. The reactions are performed for ˜2 hours, then stopped by the addition of 10 μl of 0.75 μg/ml anti-phospho Ser/Thr antibody (Cell Signaling), 10 μg/ml Protein A AlphaScreen beads (Perkin Elmer), and 10 μg/ml streptavidin coated AlphaScreen beads in stop/detection buffer (50 mM EDTA, 95 mM Tris, pH=7.5, 0.01% Tween-20). The stopped reactions are incubated overnight in the dark. The phosphorylated peptide is detected via an oxygen anion initiated chemiluminescence/fluorescence cascade using the Envision plate reader (Perkin Elmer).
Procedure for Pim 2: as §1
Procedure for Pim 3: as §1

As to `CCc1cc(F)c(-c2nc(C(=O)Nc3cnccc3N3C[C@@H](N)[C@H](O)[C@@H](C)C3)ccc2F)c(F)c1` [Example 235, N-(4-((3R,4R,5S)-3-amino-4-hydroxy-5-methylpiperidin-1-yl)pyridin-3-yl)-6-(4-ethyl-2,6-difluorophenyl)-5-fluoropicolinamide], the pEC50 in test [1] is 7.70. In addition, the values for the pIC50 on Pim 2, against Pim 3 and against Pim 1 were 9.06, 9.60 and 10.70, respectively.
Consider `COC1(c2cc(F)c(-c3nc(C(=O)Nc4cnccc4N4C[C@@H](N)[C@H](O)[C@@H](C)C4)ccc3F)c(F)c2)COC1` [Example 88, N-(4-((3R,4R,5S)-3-amino-4-hydroxy-5-methylpiperidin-1-yl)pyridin-3-yl)-6-(2,6-difluoro-4-(3-methoxyoxetan-3-yl)phenyl)-5-fluoropicolinamide], for which, in test [1], the negative-log EC50 (pEC50) is 7.77. Besides, the pIC50 against Pim 2 is 8.93; on Pim 3, 9.16; at Pim 1, 10.70.
In test [1], `Cc1cc(F)c(-c2nc(C(=O)Nc3cnccc3[C@H]3C[C@@H](N)C[C@@H](C(C)C)C3)ccc2F)c(F)c1` [Example 123, N-(4-((1R,3S,5S)-3-amino-5-isopropylcyclohexyl)pyridin-3-yl)-6-(2,6-difluoro-4-methylphenyl)-5-fluoropicolinamide] gave a pEC50 of 7.23. The negative-log IC50 (pIC50) against Pim 2 was 9.10; on Pim 3, 9.24; against Pim 1 it was 10.70.
`C[C@@H]1C[C@H](N)C[C@H](c2ccncc2NC(=O)c2ccc(F)c(-c3c(F)cc(C4=CCCC4)cc3F)n2)C1` [Example 160]: the pEC50 in test [1] is 6.55. Further, the pIC50 on Pim 2 is 8.43; against Pim 1, 10.70.
On to `COC(C)(C)c1cc(F)c(-c2nc(C(=O)Nc3cnccc3[C@H]3C[C@@H](N)[C@H](O)[C@@H](C)C3)c(N)cc2F)c(F)c1` [Example 114, 3-amino-N-(4-((1R,3R,4R,5S)-3-amino-4-hydroxy-5-methylcyclohexyl)pyridin-3-yl)-6-(2,6-difluoro-4-(2-methoxypropan-2-yl)phenyl)-5-fluoropicolinamide], for which the pIC50 was 8.86 against Pim 2, 8.89 on Pim 3 and 10.40 against Pim 1.
On to `C[C@H]1CN(c2ccncc2NC(=O)c2ccc(F)c(-c3c(F)cc(OC4COC4)cc3F)n2)C[C@@H](N)[C@@H]1O` [Example 117, N-(4-((3R,4R,5S)-3-amino-4-hydroxy-5-methylpiperidin-1-yl)pyridin-3-yl)-6-(2,6-difluoro-4-(oxetan-3-yloxy)phenyl)-5-fluoropicolinamide], for which the pIC50 was 9.19 against Pim 2, 9.80 against Pim 3 and 11.00 on Pim 1.
The corresponding values for `C[C@@H]1C[C@H](N)C[C@H](c2ccncc2NC(=O)c2ccc(F)c(-c3c(F)cc(OC[C@H](O)CO)cc3F)n2)C1` [Example 2, N-(4-((1R,3S,5S)-3-amino-5-methylcyclohexyl)pyridin-3-yl)-6-(4-((R)-2,3-dihydroxypropoxy)-2,6-difluorophenyl)-5-fluoropicolinamide] are 8.52, 9.24 and 11.00.
The corresponding values for `CCOc1ccc(F)c(-c2nc(C(=O)Nc3cnccc3[C@@H]3C[C@H](C)C[C@H](N)C3)ccc2F)c1F` [Example 213, N-(4-((1R,3S,5S)-3-amino-5-methylcyclohexyl)pyridin-3-yl)-6-(3-ethoxy-2,6-difluorophenyl)-5-fluoropicolinamide] are 8.05, 8.84 and 10.22.
For the compound `C[C@H]1CN(c2ccncc2NC(=O)c2ccc(F)c(-c3c(F)cc(OC4CCOCC4)cc3F)n2)C[C@@H](N)[C@@H]1O` [Example 116, N-(4-((3R,4R,5S)-3-amino-4-hydroxy-5-methylpiperidin-1-yl)pyridin-3-yl)-6-(2,6-difluoro-4-(tetrahydro-2H-pyran-4-yloxy)phenyl)-5-fluoropicolinamide], the pIC50 at Pim 2 is 9.24; against Pim 3, 9.70; against Pim 1, 11.00.
For `COCCOc1cc(F)c(-c2nc(C(=O)Nc3cnccc3[C@@H]3C[C@H](C)C[C@H](N)C3)c(N)cc2F)c(F)c1` [Example 118, 3-amino-N-(4-((1R,3S,5S)-3-amino-5-methylcyclohexyl)pyridin-3-yl)-6-(2,6-difluoro-4-(2-methoxyethoxy)phenyl)-5-fluoropicolinamide], in that order: 8.97, 9.54 and 11.00.
In test [1], `C[C@@H]1C[C@H](N)C[C@H](c2ccncc2NC(=O)c2ccc(F)c(-c3c(F)cc(C4(O)COC4)cc3F)n2)C1` [Example 55, N-(4-((1R,3S,5S)-3-amino-5-methylcyclohexyl)pyridin-3-yl)-6-(2,6-difluoro-4-(3-hydroxyoxetan-3-yl)phenyl)-5-fluoropicolinamide] gave a pEC50 of 7.62. Moreover, the negative-log IC50 (pIC50) was 8.62 at Pim 2 and 10.70 on Pim 1.
For `CC(C)[C@@H]1C[C@H](N)C[C@H](c2ccncc2NC(=O)c2ccc(F)c(-c3c(F)cc(OC4COC4)cc3F)n2)C1` [Example 183, N-(4-((1R,3S,5S)-3-amino-5-isopropylcyclohexyl)pyridin-3-yl)-6-(2,6-difluoro-4-(oxetan-3-yloxy)phenyl)-5-fluoropicolinamide], the pEC50 in test [1] was 6.80. At Pim 2, the pIC50 is 9.03.
On to `CCOc1cc(F)c(-c2nc(C(=O)Nc3cnccc3[C@H]3C[C@@H](N)[C@H](O)[C@@H](C)C3)ccc2F)c(F)c1` [Example 226, N-(4-((1R,3R,4R,5S)-3-amino-4-hydroxy-5-methylcyclohexyl)pyridin-3-yl)-6-(4-ethoxy-2,6-difluorophenyl)-5-fluoropicolinamide], for which the pIC50 on Pim 2 was 8.45; at Pim 3, 9.12; at Pim 1, 10.40.
Take `COC(C)(C)c1cc(F)c(-c2nc(C(=O)Nc3cnccc3[C@@H]3C[C@H](C)C[C@H](N)C3)c(N)cc2F)c(F)c1` [Example 113, 3-amino-N-(4-((1R,3S,5S)-3-amino-5-methylcyclohexyl)pyridin-3-yl)-6-(2,6-difluoro-4-(2-methoxypropan-2-yl)phenyl)-5-fluoropicolinamide]: the pIC50 is 8.82 against Pim 2, 9.14 on Pim 3 and 10.70 against Pim 1.
On to `CC(C)[C@@H]1C[C@H](N)C[C@H](c2ccncc2NC(=O)c2ccc(F)c(-c3c(F)cc(C4(O)COC4)cc3F)n2)C1` [Example 111, N-(4-((1R,3S,5S)-3-amino-5-isopropylcyclohexyl)pyridin-3-yl)-6-(2,6-difluoro-4-(3-hydroxyoxetan-3-yl)phenyl)-5-fluoropicolinamide], for which the pIC50 at Pim 2 is 9.12; on Pim 3, 9.21; on Pim 1 it was 11.00.
For `COC1(c2cc(F)c(-c3nc(C(=O)Nc4cnccc4N4C[C@@H](N)[C@H](O)[C@@H](C)C4)c(N)cc3F)c(F)c2)COC1` [Example 112, 3-amino-N-(4-((3R,4R,5S)-3-amino-4-hydroxy-5-methylpiperidin-1-yl)pyridin-3-yl)-6-(2,6-difluoro-4-(3-methoxyoxetan-3-yl)phenyl)-5-fluoropicolinamide], in that order: 9.32, 9.68 and 11.00.
As to `CC(C)[C@@H]1C[C@H](N)C[C@H](c2ccncc2NC(=O)c2ccc(F)c(-c3c(F)cc(OC4CCOCC4)cc3F)n2)C1` [Example 110, N-(4-((1R,3S,5S)-3-amino-5-isopropylcyclohexyl)pyridin-3-yl)-6-(2,6-difluoro-4-(tetrahydro-2H-pyran-4-yloxy)phenyl)-5-fluoropicolinamide], the negative-log IC50 (pIC50) was 9.02 against Pim 2, 9.60 against Pim 3 and 11.00 at Pim 1.
For the compound `C[C@H]1C[C@@H](c2ccncc2NC(=O)c2nc(-c3c(F)cc(OC4CCOCC4)cc3F)c(F)cc2N)C[C@@H](N)[C@@H]1O` [Example 87, 3-amino-N-(4-((1R,3R,4R,5S)-3-amino-4-hydroxy-5-methylcyclohexyl)pyridin-3-yl)-6-(2,6-difluoro-4-(tetrahydro-2H-pyran-4-yloxy)phenyl)-5-fluoropicolinamide], the negative logarithm of the EC50 (pEC50) in test [1] is 7.51. At Pim 2, the pIC50 was 8.84.
Consider `CCOc1cc(F)c(-c2nc(C(=O)Nc3cnccc3[C@@H]3C[C@H](C)C[C@H](N)C3)ccc2F)c(F)c1` [Example 225, N-(4-((1R,3S,5S)-3-amino-5-methylcyclohexyl)pyridin-3-yl)-6-(4-ethoxy-2,6-difluorophenyl)-5-fluoropicolinamide], for which the pIC50 against Pim 2 is 8.75; on Pim 3, 9.29; on Pim 1, 10.70.
For `C[C@H]1CN(c2ccncc2NC(=O)c2nc(-c3c(F)cc(OC4CCOCC4)cc3F)c(F)cc2N)C[C@@H](N)[C@@H]1O` [Example 115, 3-amino-N-(4-((3R,4R,5S)-3-amino-4-hydroxy-5-methylpiperidin-1-yl)pyridin-3-yl)-6-(2,6-difluoro-4-(tetrahydro-2H-pyran-4-yloxy)phenyl)-5-fluoropicolinamide], in that order: 9.18, 9.92 and 11.00.
